System: HIV-IIIb
Experiment: Antiviral assay in MT4 cells
Format: cell-based
Settings: Human immunodeficiency virus 1, MT4, 120 h; MT-4 cells mixed with HIV-IIIb at m.o.i. 0.003; 5 days at 37° C.; CellTiter-Glo luminescence; 50% decrease in signal, a measure of HIV-1 replication
Method: Antiviral Assay in MT4 Cells For the antiviral assay, 40 μL of a concentration required to achieve a final effective 1× test concentration of 3-fold serially diluted compound in culture medium with 10% FBS was added to each well of a 384-well plate (10 concentrations) in quadruplicate. MT-4 cells were next mixed with HIV-IIIb at an m.o.i of 0.003 for 1 hour, after which time 35 μL of virus/cell mixture (2000 cells) was immediately added to each well containing 40 μL of diluted compound. The plates were then incubated at 37° C. for 5 days. After 5 days of incubation, 25 μl of 2× concentrated CellTiter-Glom Reagent (catalog #G7571, Promega Biosciences, Inc., Madison, WI) was added to each well containing MT-4 cells. Cell lysis was carried out by incubating at room temperature for 10 min and then chemiluminescence was read.

SMILES | EC50 [nM]
O=C(Cn1nc(C(F)(F)F)c2c1C(F)(F)[C@@H]1C[C@H]21)N[C@@H](Cc1cc(F)cc(F)c1)c1nc2nc(N3CCN(c4ccc(-c5ncc[nH]5)cc4)CC3)sc2cc1-c1ccc2c(c1)C(=O)NC2 [Compound 34, N—((S)-1-(2-(4-(4-(1H-imidazol-2-yl)phenyl)piperazin-1-yl)-6-(3-oxoisoindolin-5-yl)thiazolo[4,5-b]pyridin-5-yl)-2-(3,5-difluorophenyl)ethyl)-2-((3bS,4aR)-5,5-difluoro-3-(trifluoromethyl)-3b,4,4a,5-tetrahydro-1H-cyclopropa[3,4]cyclopenta[1,2-c]pyrazol-1-yl)acetamide] | 97.8
O=C(Cn1nc(C(F)F)c2c1C1CC1CC2)N[C@@H](Cc1cc(F)cc(F)c1)c1nc2nc(N3CCN(c4ccc(-c5ncc[nH]5)cc4)CC3)sc2cc1-c1ccc2c(c1)C(=O)NC2 (stereo partly drawn) [Compound 35, N—((S)-1-(2-(4-(4-(1H-imidazol-2-yl)phenyl)piperazin-1-yl)-6-(3-oxoisoindolin-5-yl)thiazolo[4,5-b]pyridin-5-yl)-2-(3,5-difluorophenyl)ethyl)-2-(3-(difluoromethyl)-5,5a,6,6a-tetrahydrocyclopropa[g]indazol-1(4H)-yl)acetamide] | 31.9
O=C(Cn1nc(C(F)(F)F)c2c1C(F)(F)[C@@H]1C[C@H]21)N[C@@H](Cc1cc(F)cc(F)c1)c1nc2nc(N3CCN(c4ccncc4)CC3)sc2cc1-c1ccc2c(c1)C(=O)NC2 [Compound 36, 2-((3bS,4aR)-5,5-difluoro-3-(trifluoromethyl)-3b,4,4a,5-tetrahydro-1H-cyclopropa[3,4]cyclopenta[1,2-c]pyrazol-1-yl)-N—((S)-2-(3,5-difluorophenyl)-1-(6-(3-oxoisoindolin-5-yl)-2-(4-(pyridin-4-yl)piperazin-1-yl)thiazolo[4,5-b]pyridin-5-yl)ethyl)acetamide] | 28.7
O=C(Cn1nc(C(F)(F)F)c2c1C(F)(F)[C@@H]1C[C@H]21)N[C@H](Cc1cc(F)cc(F)c1)c1nc2nc(N3CCN(c4ccncc4)CC3)sc2cc1-c1ccc2c(c1)C(=O)NC2 [Compound 37, 2-((3bS,4aR)-5,5-difluoro-3-(trifluoromethyl)-3b,4,4a,5-tetrahydro-1H-cyclopropa[3,4]cyclopenta[1,2-c]pyrazol-1-yl)-N—((R)-2-(3,5-difluorophenyl)-1-(6-(3-oxoisoindolin-5-yl)-2-(4-(pyridin-4-yl)piperazin-1-yl)thiazolo[4,5-b]pyridin-5-yl)ethyl)acetamide] | 1070
O=C(Cn1nc(C(F)(F)F)c2c1C(F)(F)[C@@H]1C[C@H]21)N[C@@H](Cc1cc(F)cc(F)c1)c1nc2nc(N3CCN(C4COC4)CC3)sc2cc1-c1ccc2c(c1)C(=O)NC2 [Compound 38, 2-((3bS,4aR)-5,5-difluoro-3-(trifluoromethyl)-3b,4,4a,5-tetrahydro-1H-cyclopropa[3,4]cyclopenta[1,2-c]pyrazol-1-yl)-N—((S)-2-(3,5-difluorophenyl)-1-(2-(4-(oxetan-3-yl)piperazin-1-yl)-6-(3-oxoisoindolin-5-yl)thiazolo[4,5-b]pyridin-5-yl)ethyl)acetamide] | 10.1
CC1(O)CN(c2nc3nc([C@H](Cc4cc(F)cc(F)c4)NC(=O)Cn4nc(C(F)(F)F)c5c4C(F)(F)[C@@H]4C[C@H]54)c(-c4cccc5c4CNC5=O)cc3s2)C1 [Compound 39, 2-((3bS,4aR)-5,5-difluoro-3-(trifluoromethyl)-3b,4,4a,5-tetrahydro-1H-cyclopropa[3,4]cyclopenta[1,2-c]pyrazol-1-yl)-N—((S)-2-(3,5-difluorophenyl)-1-(2-(3-hydroxy-3-methylazetidin-1-yl)-6-(1-oxoisoindolin-4-yl)thiazolo[4,5-b]pyridin-5-yl)ethyl)acetamide] | 14.6
O=C(Cn1nc(C(F)(F)F)c2c1C(F)(F)[C@@H]1C[C@H]21)N[C@@H](Cc1cc(F)cc(F)c1)c1nc2nc(N3CCN(c4ccncc4)CC3)sc2cc1-c1cccc2c1CNC2=O [Compound 40, 2-((3bS,4aR)-5,5-difluoro-3-(trifluoromethyl)-3b,4,4a,5-tetrahydro-1H-cyclopropa[3,4]cyclopenta[1,2-c]pyrazol-1-yl)-N—((S)-2-(3,5-difluorophenyl)-1-(6-(1-oxoisoindolin-4-yl)-2-(4-(pyridin-4-yl)piperazin-1-yl)thiazolo[4,5-b]pyridin-5-yl)ethyl)acetamide] | 28.1
NC(=O)c1cc(-c2cc3sc(N4CCN(c5ccc(-c6ncc[nH]6)cc5)CC4)nc3nc2[C@H](Cc2cc(F)cc(F)c2)NC(=O)Cn2nc(C(F)F)c3c2C2CC2CC3)ccc1F (stereo partly drawn) [Compound 41, 5-(2-(4-(4-(1H-imidazol-2-yl)phenyl)piperazin-1-yl)-5-((1S)-1-(2-(3-(difluoromethyl)-5,5a,6,6a-tetrahydrocyclopropa[g]indazol-1(4H)-yl)acetamido)-2-(3,5-difluorophenyl)ethyl)thiazolo[4,5-b]pyridin-6-yl)-2-fluorobenzamide] | 98.1
O=C(Cn1nc(C(F)(F)F)c2c1C(F)(F)[C@@H]1C[C@H]21)N[C@@H](Cc1cc(F)cc(F)c1)c1nc2nc(N3CCN(c4ccncc4)CC3)sc2cc1-c1ccc2c(c1)C(=O)NC21CC1 [Compound 42, 2-((3bS,4aR)-5,5-difluoro-3-(trifluoromethyl)-3b,4,4a,5-tetrahydro-1H-cyclopropa[3,4]cyclopenta[1,2-c]pyrazol-1-yl)-N—((S)-2-(3,5-difluorophenyl)-1-(6-(3′-oxospiro[cyclopropane-1,1′-isoindolin]-5′-yl)-2-(4-(pyridin-4-yl)piperazin-1-yl)thiazolo[4,5-b]pyridin-5-yl)ethyl)acetamide] | 87.2
CC1(O)CN(c2nc3nc([C@H](Cc4cc(F)cc(F)c4)NC(=O)Cn4nc(C(F)(F)F)c5c4C(F)(F)[C@@H]4C[C@H]54)c(-c4ccc5c(c4)C(=O)NC54CC4)cc3s2)C1 [Compound 43, 2-((3bS,4aR)-5,5-difluoro-3-(trifluoromethyl)-3b,4,4a,5-tetrahydro-1H-cyclopropa[3,4]cyclopenta[1,2-c]pyrazol-1-yl)-N—((S)-2-(3,5-difluorophenyl)-1-(2-(3-hydroxy-3-methylazetidin-1-yl)-6-(3′-oxospiro[cyclopropane-1,1′-isoindolin]-5′-yl)thiazolo[4,5-b]pyridin-5-yl)ethyl)acetamide] | 22.5
O=C(Cn1nc(C(F)(F)F)c2c1C(F)(F)[C@@H]1C[C@H]21)N[C@@H](Cc1cc(F)cc(F)c1)c1nc2nc(N3CCN(c4nc5ccccc5[nH]4)CC3)sc2cc1-c1ccc2c(c1)C(=O)NC21CC1 [Compound 44, N—((S)-1-(2-(4-(1H-benzo[d]imidazol-2-yl)piperazin-1-yl)-6-(3′ oxospiro[cyclopropane-1,1′-isoindolin]-5′-yl)thiazolo[4,5-b]pyridin-5-yl)-2-(3,5-difluorophenyl)ethyl)-2-((3bS,4aR)-5,5-difluoro-3-(trifluoromethyl)-3b,4,4a,5-tetrahydro-1H-cyclopropa[3,4]cyclopenta[1,2-c]pyrazol-1-yl)acetamide] | 89.1

The remaining lines, values ahead:

EC50 [nM] | SMILES
144 | NC(=O)c1cc(-c2cc3sc(N4CCN(c5nc6ccccc6[nH]5)CC4)nc3nc2[C@H](Cc2cc(F)cc(F)c2)NC(=O)Cn2nc(C(F)(F)F)c3c2C(F)(F)[C@@H]2C[C@H]32)ccc1F [Compound 45, 5-(2-(4-(1H-benzo[d]imidazol-2-yl)piperazin-1-yl)-5-((S)-1-(2-((3bS,4aR)-5,5-difluoro-3-(trifluoromethyl)-3b,4,4a,5-tetrahydro-1H-cyclopropa[3,4]cyclopenta[1,2-c]pyrazol-1-yl)acetamido)-2-(3,5-difluorophenyl)ethyl)thiazolo[4,5-b]pyridin-6-yl)-2-fluorobenzamide]
85.2 | NC(=O)c1cc(-c2cc3sc(N4CCN(c5nc6ccccc6[nH]5)CC4)nc3nc2[C@H](Cc2cc(F)cc(F)c2)NC(=O)Cn2nc(C(F)F)c3c2C2CC2CC3)ccc1F (stereo partly drawn) [Compound 46, 5-(2-(4-(1H-benzo[d]imidazol-2-yl)piperazin-1-yl)-5-((1S)-1-(2-(3-(difluoromethyl)-5,5a,6,6a-tetrahydrocyclopropa[g]indazol-1(4H)-yl)acetamido)-2-(3,5-difluorophenyl)ethyl)thiazolo[4,5-b]pyridin-6-yl)-2-fluorobenzamide]
29.3 | NC(=O)c1cc(-c2cc3sc(N4CCN(c5ccncc5)CC4)nc3nc2[C@H](Cc2cc(F)cc(F)c2)NC(=O)Cn2nc(C(F)F)c3c2C2CC2CC3)ccc1F (stereo partly shown) [Compound 47]
249 | CC1(O)CN(c2nc3nc([C@H](Cc4cc(F)cc(F)c4)NC(=O)Cn4nc(C(F)(F)F)c5c4C(F)(F)[C@@H]4C[C@H]54)c(-c4ccc5n[nH]c(=O)n5c4)cc3s2)C1 [Compound 48, 2-((3bS,4aR)-5,5-difluoro-3-(trifluoromethyl)-3b,4,4a,5-tetrahydro-1H-cyclopropa[3,4]cyclopenta[1,2-c]pyrazol-1-yl)-N—((S)-2-(3,5-difluorophenyl)-1-(2-(3-hydroxy-3-methylazetidin-1-yl)-6-(3-oxo-2,3-dihydro-[1,2,4]triazolo[4,3-a]pyridin-6-yl)thiazolo[4,5-b]pyridin-5-yl)ethyl)acetamide]
31.7 | Cc1c(-c2cc3sc(N4CC(C)(O)C4)nc3nc2[C@H](Cc2cc(F)cc(F)c2)NC(=O)Cn2nc(C(F)(F)F)c3c2C(F)(F)[C@@H]2C[C@H]32)ccc2n[nH]c(=O)n12 [Compound 49, 2-((3bS,4aR)-5,5-difluoro-3-(trifluoromethyl)-3b,4,4a,5-tetrahydro-1H-cyclopropa[3,4]cyclopenta[1,2-c]pyrazol-1-yl)-N—((S)-2-(3,5-difluorophenyl)-1-(2-(3-hydroxy-3-methylazetidin-1-yl)-6-(5-methyl-3-oxo-2,3-dihydro-[1,2,4]triazolo[4,3-a]pyridin-6-yl)thiazolo[4,5-b]pyridin-5-yl)ethyl)acetamide]
